Earlier results as cited in US20230399335A1, “PROCESS FOR THE PREPARATION OF ASENAPINE IN THE FORM OF ITS FREE BASE” (LTS LOHMANN Therapie-Systeme AG, priority 2020, published 2023).

Details: when taken orally

Compound: CN1C[C@H]2c3ccccc3Oc3ccc(Cl)cc3[C@@H]2C1 (relative stereo) [asenapine, (3aRS,12bRS)-rel-5-chloro-2,3,3a,12b-tetrahydro-2-methyl-1H-dibenz[2,3:6,7]oxepin [4,5-c]pyrrole]
- bioavailability: < 2%
